Data: patent US20050004105A1, “Treatment for a attention-deficit hyperactivity disorder” (priority 2003, published 2005)

Columns and labels:
5-HT1A receptors [1] = molecular target: T1, 5-HT1A receptors (Homo sapiens, UniProt P08908); settings: proportion of maximal inhibition of forskolin-stimulated cAMP relative to 5-HT; Koek et al., 1998; cited from earlier work
T1 sequence (P08908 1-422): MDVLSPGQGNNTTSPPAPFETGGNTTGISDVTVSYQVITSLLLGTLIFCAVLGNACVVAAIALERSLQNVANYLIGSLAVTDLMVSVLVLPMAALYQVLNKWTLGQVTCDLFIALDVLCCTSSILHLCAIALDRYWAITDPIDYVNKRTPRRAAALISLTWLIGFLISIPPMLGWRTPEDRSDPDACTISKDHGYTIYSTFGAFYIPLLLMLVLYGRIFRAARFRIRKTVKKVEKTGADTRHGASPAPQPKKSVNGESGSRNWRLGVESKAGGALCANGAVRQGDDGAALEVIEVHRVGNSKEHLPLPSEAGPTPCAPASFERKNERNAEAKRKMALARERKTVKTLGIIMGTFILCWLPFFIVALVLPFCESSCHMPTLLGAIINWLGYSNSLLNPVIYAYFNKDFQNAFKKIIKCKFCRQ

5-HT1A receptors [2] = molecular target: T1, 5-HT1A receptors; test: 5-HT1A receptor affinity (Schipper et al., 1991); assay type: binding; settings: based on Ki values of Schipper et al.
Cm mutant mice = Cm mutant mice (methylphenidate: both control and Cm mutants); Hess et al., 1996; cited from earlier work

SMILES | intrinsic activity at the 5-HT1A receptor (5-HT1A receptors [1]) | also measured
CCCN(CCC)C1Cc2c[nH]c3ccc(C(N)=O)c(c23)C1 (single isomer, unassigned; (-)) [LY228729, (−)-4(dipropylamino)-1,3,4,5-tetrahydrobenz-[c,d,]indole-6-carboxamide] | 0.88 | 
COc1ccc2cccc(N3CCN(CCNC(=O)c4ccc(F)cc4)CC3)c2c1 [S14506, 1(2-[4-fluorobenzoylamino]ethyl)-4-(7-methoxynaphtyl)piperazine] | 0.95 | 
O=C1CC2(CCCC2)CC(=O)N1CCCCN1CCN(c2ncccn2)CC1 [buspirone] |  | ΔpKi for 5-HT1A and D2 receptors (5-HT1A receptors [2]): 0.44
CC1(C)CC(=O)N(CCCCN2CCN(c3ncccn3)CC2)C(=O)C1 [gepirone] | 0.77 | 
COC(=O)C(c1ccccc1)C1CCCCN1 (centres unmarked) [methylphenidate] |  | effect on hyperactivity / locomotor activity (Cm mutant mice): increases locomotor activity in a dose-dependent manner
